Test results from patent US10703764B2, “Benzopiperazine compositions as BET bromodomain inhibitors” (FORMA Therapeutics, Inc., priority 2013, dated 2020).

Assays:
BRD4 BD2 = target: T1, BRD4 BD2 (Homo sapiens, UniProt O60885); experiment: AlphaScreen binding assay, BRD4 Bromodomain 2
T1 construct: made in house
Description: (§1) The binding of Example compounds to BRD4 Bromodomain 1 and BRD4 Bromodomain 2 was assessed using 384-well AlphaScreen assay technology. His-epitope tagged BRD4 BD144-168 and BRD4 BD2333-460 were cloned, expressed, and purified to homogeneity. BRD4 BD1 and BRD4 BD2 binding and inhibition was assessed by monitoring the engagement of biotinylated Histone H4 (1-21) K5/8/12/16 tetra-acetylated peptide with the targets using the AlphaScreen technology (PerkinElmer). Specifically, in a 384-well black or white flat bottom plate, BRD4 BD1 (50 nM final) or BRD4 BD2 (100 nM final) was combined with peptide (50 nM final for BD1 or 100 nM final for BD2) in 50 mM HEPES (pH 7.3), 100 mM NaCl, 0.1% (w/v) BSA, and 0.01% (w/v) Triton X-100 either in the presence of DMSO (final 1.25% DMSO) or compound dilution series in DMSO. Alpha streptavidin donor beads and Nickel-chelate acceptor beads were added to a final concentration of 10 μg/ml each. After a minimum of 1 hour equilibration, plates were read on a BMG PHERAstar FS multi-label reader (BMG LabTech). The half maximal inhibitory concentration (IC50) values were calculated using IDBS Activity Base software with a four parameter logistic curve fit by the equation y=A+((B−A)/(1+((C/x)^D))), wherein A denotes the bottom plateau of the curve, B denotes the top plateau of the curve, C denotes the x value at the middle of the curve, D denotes the slope factor, x denotes the original known x values, and y denotes the original known y values. Data was fitted using the Levenburg Marquardt algorithm.

BRD4 BD1 = target: T2, BRD4 BD1 (Homo sapiens, UniProt O60885); experiment: AlphaScreen binding assay, BRD4 Bromodomain 1
T2 construct: made in house
Description: as §1

Row | IC50 (BRD4 BD2) | IC50 (BRD4 BD1) | SMILES
1 | 0.05 to 0.5 µM | > 10 µM | CC(=O)N1c2ccc(-c3ccc(S(C)(=O)=O)cc3)cc2N(C(=O)N(C)C)C[C@@H]1C [Example I-248]
2 | > 0.5 µM | 1 to 10 µM | COCCOC(=O)N1C[C@H](C)N(C(C)=O)c2ccc(-c3ccc(S(C)(=O)=O)cc3)cc21 [Example I-249]
3 | > 0.5 µM | > 10 µM | CNC(=O)N1C[C@H](C)N(C(C)=O)c2ccc(-c3ccc(S(C)(=O)=O)cc3)cc21 [Example I-253]
4 | > 0.5 µM | 1 to 10 µM | CC(=O)N1c2ccc(-c3ccc(S(C)(=O)=O)cc3)nc2N(C(=O)OC(C)C)C[C@@H]1C [Example I-254]
5 | 0.05 to 0.5 µM | 1 to 10 µM | CC(=O)N1c2ccc(-c3cnn(C4CC4)c3)nc2N(C(=O)OC(C)C)C[C@@H]1C [Example I-255]
6 | 0.05 to 0.5 µM | 1 to 10 µM | CC(=O)N1c2ccc(-c3cnn(C)c3C)cc2N(C(=O)c2ccco2)C[C@@H]1C [Example I-270]
7 | 0.05 to 0.5 µM | 1 to 10 µM | CC(=O)N1c2ncc(-c3ccc(S(C)(=O)=O)cc3)cc2N(C(=O)c2ccco2)C[C@@H]1C [Example I-271]
8 | 0.05 to 0.5 µM | 1 to 10 µM | CC(=O)N1c2ncc(-c3ccc(C(=O)N(C)C)cc3)cc2N(C(=O)c2ccco2)C[C@@H]1C [Example I-272]
9 | > 0.5 µM | 1 to 10 µM | CCCn1cc(-c2cnc3c(c2)N(C(=O)c2ccco2)C[C@H](C)N3C(C)=O)cn1 [Example I-273]
10 | 0.05 to 0.5 µM | 1 to 10 µM | CC(=O)N1c2ccc(-c3cnc(N)nc3)cc2N(C(=O)c2ccco2)C[C@@H]1C [Example I-296]
11 | > 0.5 µM | > 10 µM | CC(=O)N1c2ccc(-c3ccc(S(C)(=O)=O)cc3)cc2N(C(=O)OC(C)C)C[C@H]1C [Example I-297]
12 | 0.05 to 0.5 µM | 1 to 10 µM | CC(=O)N1c2ccc(-c3ccc(N4CCCC4)cc3)cc2N(C(=O)c2ccco2)C[C@@H]1C [Example I-298]
13 | 0.05 to 0.5 µM | 1 to 10 µM | CC(=O)N1c2ccc(-c3ccc(S(C)(=O)=O)cc3)nc2N(C(=O)c2ccco2)C[C@@H]1C [Example I-300]
14 | > 0.5 µM | 1 to 10 µM | CC(=O)N1c2ccc(-c3ccc(S(C)(=O)=O)cc3)nc2N(C(=O)C2CC2)C[C@@H]1C [Example I-301]
15 | 0.05 to 0.5 µM | 1 to 10 µM | CC(C)OC(=O)N1C[C@H](C)N(C(=O)C2CC2)c2ccc(-c3cnn(CC(=O)N(C)C)c3)cc21 [Example I-311]
16 | > 0.5 µM | 1 to 10 µM | CC(=O)N1c2ccc(-c3c(C)n[nH]c3C)cc2N(C(=O)OC(C)C)CC1C (centres unmarked) [Example I-333]
17 | > 0.5 µM | 1 to 10 µM | CC(=O)N1c2ccc(-c3cnn(-c4ccccc4)c3)cc2N(C(=O)OC(C)C)C[C@@H]1C [Example I-334]
18 | > 0.5 µM | 1 to 10 µM | CC(=O)N1c2ccc(-c3c[nH]nc3C(F)(F)F)cc2N(C(=O)OC(C)C)CC1C (centres unmarked) [Example I-335]
19 | 0.05 to 0.5 µM | 1 to 10 µM | CC(=O)N1c2ccc(-c3cnn(C)c3C)cc2N(C(=O)OC(C)C)C[C@@H]1C [Example I-339]
20 | > 0.5 µM | 1 to 10 µM | CC(C)OC(=O)N1C[C@H](C)N(C(=O)C2CC2)c2ccc(-c3cnn(CC(=O)O)c3)cc21 [Example I-340]
21 | 0.05 to 0.5 µM | 1 to 10 µM | COC(=O)N1c2ccc(-c3cnn(CC(=O)O)c3)cc2N(C(=O)OC(C)C)C[C@@H]1C [Example I-341]
22 | 0.05 to 0.5 µM | 1 to 10 µM | CC(=O)N1c2ccc(-c3cnn(CCO)c3)cc2N(C(=O)C2CC2)C[C@@H]1C [Example I-342]
23 | 0.05 to 0.5 µM | 1 to 10 µM | CC(=O)N1c2ccc(-c3cnn(CC(C)(C)O)c3)cc2N(C(=O)C2CC2)C[C@@H]1C [Example I-343]
24 | 0.05 to 0.5 µM | 1 to 10 µM | CC(=O)N1c2ccc(-c3cnn(CCS(C)(=O)=O)c3)cc2N(C(=O)C2CC2)CC1C (centres unmarked) [Example I-344]
25 | 0.05 to 0.5 µM | 1 to 10 µM | CC(C)OC(=O)N1C[C@H](C)N(C(C)C2CC2)c2ccc(-c3cnn(C4CNC4)c3)cc21 (some centres unmarked) [Example I-357]
26 | 0.05 to 0.5 µM | 1 to 10 µM | COC(=O)N1c2ccc(-c3cnn(C4CNC4)c3)cc2N(C(=O)OC(C)C)C[C@@H]1C [Example I-358]
27 | > 0.5 µM | > 10 µM | C[C@H]1CN(C(=O)c2ccco2)c2cc(-c3ccc(S(C)(=O)=O)cc3)ccc2N1C(=O)C(F)(F)F [Example I-361]
28 | > 0.5 µM | > 10 µM | C[C@H]1CN(C(=O)c2ccco2)c2cc(-c3ccc(C(=O)N(C)C)cc3)ccc2N1C(=O)C(F)(F)F [Example I-362]

Row | IC50 (BRD4 BD2) | IC50 (BRD4 BD1) | SMILES
29 | 0.05 to 0.5 µM | 1 to 10 µM | CCCn1cc(-c2ccc3c(c2)N(C(=O)c2ccco2)C[C@H](C)N3C(=O)C(F)(F)F)cn1 [Example I-363]
30 | > 0.5 µM | > 10 µM | C[C@H]1CN(C(=O)c2ccco2)c2cc(-c3ccc(S(C)(=O)=O)cc3)ccc2N1C(=O)CO [Example I-367]
31 | > 0.5 µM | > 10 µM | COCC(=O)N1c2ccc(-c3ccc(S(C)(=O)=O)cc3)cc2N(C(=O)c2ccco2)C[C@@H]1C [Example I-368]
32 | > 0.5 µM | > 10 µM | C[C@H]1CN(C(=O)c2ccco2)c2cc(-c3ccc(S(C)(=O)=O)cc3)ccc2N1C(=O)N(C)C [Example I-369]
33 | > 0.5 µM | > 10 µM | CC(C)C(=O)N1c2ccc(-c3ccc(S(C)(=O)=O)cc3)cc2N(C(=O)c2ccco2)C[C@@H]1C [Example I-370]
34 | > 0.5 µM | > 10 µM | CCOC(=O)N1c2ccc(-c3ccc(S(C)(=O)=O)cc3)cc2N(C(=O)c2ccco2)C[C@@H]1C [Example I-371]
35 | > 0.5 µM | > 10 µM | CC(C)OC(=O)N1c2ccc(-c3ccc(S(C)(=O)=O)cc3)cc2N(C(=O)c2ccco2)C[C@@H]1C [Example I-372]
36 | > 0.5 µM | > 10 µM | C[C@H]1CN(C(=O)c2ccco2)c2cc(-c3ccc(S(C)(=O)=O)cc3)ccc2N1C(=O)C1CCCC1 [Example I-373]
37 | > 0.5 µM | 1 to 10 µM | C[C@H]1CN(C(=O)c2ccco2)c2cc(-c3ccc(S(C)(=O)=O)cc3)ccc2N1C(=O)C1CCC1 [Example I-374]
38 | > 0.5 µM | > 10 µM | C[C@H]1CN(C(=O)c2ccco2)c2cc(-c3ccc(S(C)(=O)=O)cc3)ccc2N1C(=O)c1ccno1 [Example I-375]
39 | > 0.5 µM | > 10 µM | C[C@H]1CN(C(=O)c2ccco2)c2cc(-c3ccc(S(C)(=O)=O)cc3)ccc2N1C(=O)N1CCCC1 [Example I-376]
40 | > 0.5 µM | 0.1 to 1 µM | CCOC(=O)N1C[C@H](C)N(C(=O)OC)c2ccc(-c3cnn(C4CC4)c3)cc21 [Example I-380]
41 | 0.05 to 0.5 µM | 1 to 10 µM | CC(=O)N1c2ccc(-c3ccccn3)cc2N(C(=O)c2ccco2)C[C@@H]1C [Example I-381]
42 | 0.05 to 0.5 µM | 1 to 10 µM | CC(=O)N1c2ccc(-c3ncccn3)cc2N(C(=O)c2ccco2)C[C@@H]1C [Example I-383]
43 | 0.05 to 0.5 µM | 1 to 10 µM | CC(=O)N1c2ccc(-c3cnccn3)cc2N(C(=O)c2ccco2)C[C@@H]1C [Example I-384]
44 | > 0.5 µM | 1 to 10 µM | CC(=O)N1c2ccc(-c3ccc4[nH]ccc4c3)cc2N(C(=O)c2ccco2)CC1C (centres unmarked) [Example I-385]
45 | 0.05 to 0.5 µM | 1 to 10 µM | CC(=O)N1c2ccc(-c3cccc4c3OCC4)cc2N(C(=O)c2ccco2)C[C@@H]1C [Example I-386]
46 | > 0.5 µM | > 10 µM | CC(=O)N1c2ccc(-c3nccn3C)cc2N(C(=O)c2ccco2)C[C@@H]1C [Example I-388]
47 | 0.05 to 0.5 µM | > 10 µM | CC(=O)N1c2ccc(-c3cncn3C)cc2N(C(=O)c2ccco2)C[C@@H]1C [Example I-389]
48 | 0.05 to 0.5 µM | 1 to 10 µM | CC(=O)N1c2ccc(-c3cnoc3)cc2N(C(=O)c2ccco2)C[C@@H]1C [Example I-390]
49 | 0.05 to 0.5 µM | 1 to 10 µM | CC(=O)N1c2ccc(-c3cnc4ccccn34)cc2N(C(=O)c2ccco2)C[C@@H]1C [Example I-391]
50 | 0.05 to 0.5 µM | 1 to 10 µM | CC(=O)N1c2ccc(-c3ccc(C#N)cn3)cc2N(C(=O)c2ccco2)C[C@@H]1C [Example I-392]
51 | 0.05 to 0.5 µM | 1 to 10 µM | CC(=O)N1c2ccc(-c3ccc4nnc(C)n4c3)cc2N(C(=O)c2ccco2)C[C@@H]1C [Example I-393]
52 | < 0.05 µM | 0.1 to 1 µM | CC(=O)N1c2ccc(-c3ccc4[nH]c(=O)[nH]c4c3)cc2N(C(=O)c2ccco2)CC1C (centres unmarked) [Example I-394]
53 | < 0.05 µM | 0.1 to 1 µM | CC(=O)N1c2ccc(-c3ccc4c(c3)n(C)c(=O)n4C)cc2N(C(=O)c2ccco2)C[C@@H]1C [Example I-395]
54 | 0.05 to 0.5 µM | 1 to 10 µM | CC(=O)N1c2ccc(-c3ccc4nncn4n3)cc2N(C(=O)c2ccco2)C[C@@H]1C [Example I-396]
55 | 0.05 to 0.5 µM | 1 to 10 µM | CC(=O)N1c2ccc(-c3ccc4[nH]ccc4n3)cc2N(C(=O)c2ccco2)CC1C (centres unmarked) [Example I-397]
